Source: patent US9834518B2, “Compounds for inhibiting cell proliferation in EGFR-driven cancers” (ARIAD Pharmaceuticals, Inc., priority 2011, dated 2017)

What was measured:
[1] = target: EGFR bearing the L858R mution (Homo sapiens, UniProt P00533, L858R); test: Kinase inhibition, EGFR L858R; format: biochemical; settings: 10 μM ATP; 10 pt curves, 3 μM top concentration (singlicates)
Method: (§1) Kinase inhibitory activity of the compounds was measured against human EGFR (native sequence) and against EGFR bearing the L858R mution and the L858R/T790M double mutation (EGFR, L858R, and L858R/T790M, respectively in Table 1). Additional assays can be conducted with EGFR deletion mutants such as delE746-A750 with or without the additional T790M mutation. Assay conditions included 10 pt curves with 3 μM top concentration (singlicates) and 10 μM ATP.

[2] = test system: BAF3 PARENTAL; test: Cell proliferation (MTT), BAF3 parental; format: cell-based; settings: Mus musculus
Method: (§2) We also assessed the antiproliferative activity of compounds of Formula (I) against BaF3 cells expressing the target EGFR mutations or control (i.e., cell lines expressing wildtype EGFR). Assays were conducted using MTT.

[3] = target: human EGFR (native sequence) (Homo sapiens, UniProt P00533); test: Kinase inhibition, human EGFR (native sequence); format: biochemical; settings: 10 μM ATP; 10 pt curves, 3 μM top concentration (singlicates)
human EGFR (native sequence), sequence (P00533 25-1210): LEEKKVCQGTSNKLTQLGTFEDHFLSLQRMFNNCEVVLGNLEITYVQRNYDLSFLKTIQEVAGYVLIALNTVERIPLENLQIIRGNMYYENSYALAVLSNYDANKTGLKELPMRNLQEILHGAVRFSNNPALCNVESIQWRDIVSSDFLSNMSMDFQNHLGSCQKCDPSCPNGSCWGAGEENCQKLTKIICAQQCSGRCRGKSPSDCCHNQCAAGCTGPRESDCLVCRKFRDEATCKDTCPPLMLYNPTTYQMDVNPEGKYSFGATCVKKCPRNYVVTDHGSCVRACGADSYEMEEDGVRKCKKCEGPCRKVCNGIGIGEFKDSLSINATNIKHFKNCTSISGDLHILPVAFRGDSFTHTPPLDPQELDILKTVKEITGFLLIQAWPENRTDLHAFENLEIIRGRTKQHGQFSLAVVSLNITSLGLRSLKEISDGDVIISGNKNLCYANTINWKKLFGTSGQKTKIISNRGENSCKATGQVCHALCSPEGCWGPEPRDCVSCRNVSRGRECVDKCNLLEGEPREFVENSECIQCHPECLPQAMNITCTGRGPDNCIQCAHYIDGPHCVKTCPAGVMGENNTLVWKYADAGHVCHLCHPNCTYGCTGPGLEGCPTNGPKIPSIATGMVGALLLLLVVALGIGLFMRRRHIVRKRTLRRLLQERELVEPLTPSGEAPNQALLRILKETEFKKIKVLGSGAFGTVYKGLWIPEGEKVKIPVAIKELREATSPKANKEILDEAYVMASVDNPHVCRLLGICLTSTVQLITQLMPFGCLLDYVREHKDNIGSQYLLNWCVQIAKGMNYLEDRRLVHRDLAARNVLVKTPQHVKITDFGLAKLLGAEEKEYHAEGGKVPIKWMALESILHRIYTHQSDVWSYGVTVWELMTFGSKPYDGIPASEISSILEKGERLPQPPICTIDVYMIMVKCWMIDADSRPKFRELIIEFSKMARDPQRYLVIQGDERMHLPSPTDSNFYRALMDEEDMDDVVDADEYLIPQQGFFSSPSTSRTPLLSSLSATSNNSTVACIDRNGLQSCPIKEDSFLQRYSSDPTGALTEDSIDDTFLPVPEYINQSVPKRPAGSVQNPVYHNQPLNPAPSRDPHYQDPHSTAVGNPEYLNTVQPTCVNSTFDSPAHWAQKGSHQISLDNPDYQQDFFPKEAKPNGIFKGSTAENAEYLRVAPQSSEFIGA
Method: as §1

[4] = target: BAF3 EGFR DEL T790M PURO POOL (Homo sapiens, UniProt P00533, DEL746-750/T790M, cells depend on it); test: Cell proliferation (MTT), BAF3 EGFR DEL T790M; format: cell-based
BAF3 EGFR DEL T790M PURO POOL, sequence (P00533 with tags, fused parts or gaps DEL746-750/T790M): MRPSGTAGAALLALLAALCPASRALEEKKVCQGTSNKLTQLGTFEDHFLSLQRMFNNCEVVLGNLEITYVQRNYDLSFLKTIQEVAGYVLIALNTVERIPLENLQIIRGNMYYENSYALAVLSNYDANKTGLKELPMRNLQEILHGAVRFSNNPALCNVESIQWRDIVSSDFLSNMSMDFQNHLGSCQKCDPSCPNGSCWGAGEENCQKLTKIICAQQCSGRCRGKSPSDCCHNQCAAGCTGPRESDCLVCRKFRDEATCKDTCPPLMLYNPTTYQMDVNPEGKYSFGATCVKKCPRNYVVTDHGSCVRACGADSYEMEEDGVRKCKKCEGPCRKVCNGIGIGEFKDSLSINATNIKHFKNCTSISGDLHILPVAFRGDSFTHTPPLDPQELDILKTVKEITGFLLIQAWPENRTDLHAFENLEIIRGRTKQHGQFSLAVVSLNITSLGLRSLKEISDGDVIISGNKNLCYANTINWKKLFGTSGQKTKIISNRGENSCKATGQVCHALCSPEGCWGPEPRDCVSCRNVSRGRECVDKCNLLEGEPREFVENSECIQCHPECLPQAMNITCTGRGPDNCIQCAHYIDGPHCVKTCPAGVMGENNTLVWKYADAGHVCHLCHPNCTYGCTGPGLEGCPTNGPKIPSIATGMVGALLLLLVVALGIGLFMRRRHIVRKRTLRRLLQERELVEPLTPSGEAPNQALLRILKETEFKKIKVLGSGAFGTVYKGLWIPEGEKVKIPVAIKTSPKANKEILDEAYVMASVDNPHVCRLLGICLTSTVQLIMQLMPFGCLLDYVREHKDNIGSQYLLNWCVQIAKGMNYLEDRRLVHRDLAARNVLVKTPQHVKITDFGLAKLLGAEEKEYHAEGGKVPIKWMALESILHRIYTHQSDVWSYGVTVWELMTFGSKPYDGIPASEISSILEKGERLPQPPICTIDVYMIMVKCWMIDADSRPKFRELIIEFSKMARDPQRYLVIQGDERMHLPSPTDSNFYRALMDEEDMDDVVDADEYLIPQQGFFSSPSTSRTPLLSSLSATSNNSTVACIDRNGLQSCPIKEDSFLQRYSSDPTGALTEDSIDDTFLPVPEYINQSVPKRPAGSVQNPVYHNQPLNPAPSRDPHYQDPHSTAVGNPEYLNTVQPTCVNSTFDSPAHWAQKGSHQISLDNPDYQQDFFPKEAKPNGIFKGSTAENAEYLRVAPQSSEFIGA
Method: as §2

[5] = target: EGFR bearing the L858R/T790M double mutation (Homo sapiens, UniProt P00533, L858R/T790M); test: Kinase inhibition, EGFR L858R/T790M; format: biochemical; settings: 10 μM ATP; 10 pt curves, 3 μM top concentration (singlicates)
EGFR bearing the L858R/T790M double mutation, sequence (P00533 25-1210 T790M/L858R): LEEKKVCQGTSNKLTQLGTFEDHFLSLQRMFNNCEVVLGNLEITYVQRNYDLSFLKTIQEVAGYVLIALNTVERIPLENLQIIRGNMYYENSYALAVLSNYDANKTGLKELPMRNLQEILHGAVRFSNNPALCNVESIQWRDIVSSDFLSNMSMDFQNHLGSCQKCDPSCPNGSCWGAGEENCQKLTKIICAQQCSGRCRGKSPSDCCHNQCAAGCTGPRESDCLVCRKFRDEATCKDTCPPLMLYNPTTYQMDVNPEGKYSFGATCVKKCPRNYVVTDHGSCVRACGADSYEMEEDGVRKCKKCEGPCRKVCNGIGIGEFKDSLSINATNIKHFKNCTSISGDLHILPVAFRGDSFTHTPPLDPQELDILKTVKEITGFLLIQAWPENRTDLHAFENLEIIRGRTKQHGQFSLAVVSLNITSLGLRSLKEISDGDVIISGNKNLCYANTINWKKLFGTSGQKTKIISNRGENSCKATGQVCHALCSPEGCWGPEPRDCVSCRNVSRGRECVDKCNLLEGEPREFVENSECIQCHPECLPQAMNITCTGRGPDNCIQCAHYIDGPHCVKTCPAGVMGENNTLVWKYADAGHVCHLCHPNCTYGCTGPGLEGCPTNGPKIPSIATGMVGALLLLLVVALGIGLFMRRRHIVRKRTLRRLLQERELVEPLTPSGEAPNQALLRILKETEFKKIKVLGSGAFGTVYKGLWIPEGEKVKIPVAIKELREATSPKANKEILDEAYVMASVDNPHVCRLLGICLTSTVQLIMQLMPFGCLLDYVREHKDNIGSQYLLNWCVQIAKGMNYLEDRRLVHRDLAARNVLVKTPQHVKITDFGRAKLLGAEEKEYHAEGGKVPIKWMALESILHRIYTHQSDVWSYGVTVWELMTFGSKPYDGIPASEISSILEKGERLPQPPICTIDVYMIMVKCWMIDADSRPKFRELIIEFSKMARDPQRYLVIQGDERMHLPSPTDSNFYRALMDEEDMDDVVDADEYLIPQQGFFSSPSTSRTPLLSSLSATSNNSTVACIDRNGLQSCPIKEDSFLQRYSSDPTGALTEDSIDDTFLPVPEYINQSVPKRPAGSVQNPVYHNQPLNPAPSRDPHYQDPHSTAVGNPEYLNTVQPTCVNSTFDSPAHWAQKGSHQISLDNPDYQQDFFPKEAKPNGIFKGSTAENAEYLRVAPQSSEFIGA
Method: as §1

[6] = test system: BAF3 EGFR L858R-T790M PURO POOL; test: Cell proliferation (MTT), BAF3 EGFR L858R-T790M; format: cell-based; settings: Ba/F3 EGFR
Method: as §2

EGFR bearing the L858R mution, sequence (P00533 25-1210 L858R): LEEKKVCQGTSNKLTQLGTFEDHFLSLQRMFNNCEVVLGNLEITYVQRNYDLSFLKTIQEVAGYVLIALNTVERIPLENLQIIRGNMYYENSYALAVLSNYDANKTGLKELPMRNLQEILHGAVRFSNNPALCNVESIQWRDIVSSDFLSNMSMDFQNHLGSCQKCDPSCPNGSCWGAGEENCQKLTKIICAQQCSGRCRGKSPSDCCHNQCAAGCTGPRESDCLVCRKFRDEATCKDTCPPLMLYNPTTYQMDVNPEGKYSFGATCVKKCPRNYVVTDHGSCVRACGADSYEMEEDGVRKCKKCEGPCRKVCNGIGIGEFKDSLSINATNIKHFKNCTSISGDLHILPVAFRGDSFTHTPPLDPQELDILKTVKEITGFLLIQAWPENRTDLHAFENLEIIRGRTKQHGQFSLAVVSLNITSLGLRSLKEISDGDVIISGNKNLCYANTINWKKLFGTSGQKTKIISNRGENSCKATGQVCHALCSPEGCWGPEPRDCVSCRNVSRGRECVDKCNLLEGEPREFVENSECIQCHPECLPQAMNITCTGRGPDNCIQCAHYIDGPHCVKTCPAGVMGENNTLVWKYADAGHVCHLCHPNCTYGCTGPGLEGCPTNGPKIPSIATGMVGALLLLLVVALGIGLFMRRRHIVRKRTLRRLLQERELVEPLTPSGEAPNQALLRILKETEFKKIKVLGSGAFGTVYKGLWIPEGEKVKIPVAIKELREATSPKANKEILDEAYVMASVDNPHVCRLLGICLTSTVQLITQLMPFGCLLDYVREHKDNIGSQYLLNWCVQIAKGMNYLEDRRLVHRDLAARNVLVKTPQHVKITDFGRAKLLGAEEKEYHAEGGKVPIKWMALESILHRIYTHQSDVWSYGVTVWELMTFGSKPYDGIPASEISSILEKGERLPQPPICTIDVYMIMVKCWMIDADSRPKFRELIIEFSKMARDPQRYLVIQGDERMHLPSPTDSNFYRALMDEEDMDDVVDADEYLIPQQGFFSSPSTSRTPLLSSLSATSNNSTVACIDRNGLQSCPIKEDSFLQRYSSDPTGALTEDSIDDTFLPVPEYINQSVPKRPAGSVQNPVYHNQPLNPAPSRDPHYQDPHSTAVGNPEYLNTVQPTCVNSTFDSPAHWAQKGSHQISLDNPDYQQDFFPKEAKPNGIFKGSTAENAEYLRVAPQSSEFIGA

SMILES	IC50 [1] [nM]	IC50 [3] [nM]	IC50 [4] [nM]	IC50 [5] [nM]	IC50 [6] [nM]	IC50 [2] [nM]
C=CC(=O)N[C@@H]1CCC[C@@H](Nc2ncc(Cl)c(Nc3ccccc3P(C)(C)=O)n2)C1 (racemic) [Example 42, rac-N-((1R,3R)-3-((5-chloro-4-((2-(dimethylphosphoryl)phenyl)amino)pyrimidin-2-yl)amino)cyclohexyl)acrylamide]	≥ 250	≥ 250	≥ 250	≥ 250		≥ 250
C=CC(=O)Nc1cc(Nc2ncc(Cl)c(Nc3ccccc3P(C)(C)=O)n2)c(OC)cc1O[C@@H](COC)CN(CC)CC (stereo in doubt) [Example 29, rac-(R)—N-(5-((5-chloro-4-((2-(dimethylphosphoryl)phenyl)amino)pyrimidin-2-yl)amino)-2-((1-(diethylamino)-3-methoxypropan-2-yl)oxy)-4-methoxyphenyl)acrylamide]	< 51	< 51	< 51	< 51	< 51	≥ 250
C=CC(=O)N[C@H]1CCC[C@@H](Nc2ncc(Cl)c(Nc3ccccc3P(C)(C)=O)n2)C1 (stereo in doubt) [Example 43, N-(3-((5-chloro-4-((2-(dimethylphosphoryl)phenyl)amino)pyrimidin-2-yl)amino)cyclohexyl)acrylamide]	≥ 250	≥ 250	≥ 250	≥ 250		≥ 250
C=CC(=O)Nc1ccc(OC)c(Nc2ncc(Cl)c(Nc3ccccc3P(C)(C)=O)n2)c1 [Example 1, N-(3-((5-chloro-4-((2-(dimethylphosphoryl)phenyl)amino)pyrimidin-2-yl)amino)-4-methoxyphenyl)acrylamide]	< 51	51 to 100	< 51	< 51	< 51	≥ 250
COc1ccc(NC(=O)C=C(C)C)cc1Nc1ncc(Cl)c(Nc2ccccc2P(C)(C)=O)n1 [Example 5b, N-(3-((5-chloro-4-((2-(dimethylphosphoryl)phenyl)amino)pyrimidin-2-yl)amino)-4-methoxyphenyl)-3-methylbut-2-enamide]	≥ 250		≥ 250	≥ 250		≥ 250
C=C(C)C(=O)Nc1ccc(OC)c(Nc2ncc(Cl)c(Nc3ccccc3P(C)(C)=O)n2)c1 [Example 5c, N-(3-((5-chloro-4-((2-(dimethylphosphoryl)phenyl)amino)pyrimidin-2-yl)amino)-4-methoxyphenyl)methacrylamide]	≥ 250	≥ 250	101 to 250	≥ 250	≥ 250	≥ 250
C=CC(=O)Nc1cccc(Nc2ncc(Cl)c(Nc3ccccc3P(C)(C)=O)n2)c1 [Example 5d, N-(3-((5-chloro-4-((2-(dimethylphosphoryl)phenyl)amino)pyrimidin-2-yl)amino)phenyl)acrylamide]	< 51	101 to 250	< 51	< 51	< 51	51 to 100

More lines, main results first:

IC50 [1] [nM]	IC50 [3] [nM]	IC50 [4] [nM]	IC50 [5] [nM]	IC50 [6] [nM]	SMILES	IC50 [2] [nM]
< 51	< 51	< 51	< 51	< 51	C=CC(=O)Nc1cc(Nc2ncc(Cl)c(Nc3ccccc3P(C)(C)=O)n2)c(OC)cc1O[C@H](COC)CN(CC)CC (stereo in doubt) [Example 30, rac-(R)—N-(5-((5-chloro-4-((2-(dimethylphosphoryl)phenyl)amino)pyrimidin-2-yl)amino)-2-((1-(diethylamino)-3-methoxypropan-2-yl)oxy)-4-methoxyphenyl)acrylamide]	≥ 250
< 51	101 to 250	< 51	< 51	51 to 100	COc1ccc(NC(=O)/C=C/CN(C)C)cc1Nc1ncc(Cl)c(Nc2ccccc2P(C)(C)=O)n1 [Example 2, (E)-N-(3-((5-chloro-4-((2-(dimethylphosphoryl)phenyl)amino)pyrimidin-2-yl)amino)-4-methoxyphenyl)-4-(dimethylamino)but-2-enamide]	≥ 250
< 51	≥ 250		51 to 100		COc1ccc(NC(=O)/C=C/CN2CCOCC2)cc1Nc1ncc(Cl)c(Nc2ccccc2P(C)(C)=O)n1 [Example 3, (E)-N-(3-((5-chloro-4-((2-(dimethylphosphoryl)phenyl)amino)pyrimidin-2-yl)amino)-4-methoxyphenyl)-4-morpholinobut-2-enamide]	≥ 250
< 51	≥ 250	≥ 250	101 to 250		COc1ccc(NC(=O)/C=C/CN2CCN(C)CC2)cc1Nc1ncc(Cl)c(Nc2ccccc2P(C)(C)=O)n1 [Example 4, (E)-N-(3-((5-chloro-4-((2-(dimethylphosphoryl)phenyl)amino)pyrimidin-2-yl)amino)-4-methoxyphenyl)-4-(4-methylpiperazin-1-yl)but-2-enamide]	≥ 250
≥ 250		≥ 250	≥ 250		C/C=C/C(=O)Nc1ccc(OC)c(Nc2ncc(Cl)c(Nc3ccccc3P(C)(C)=O)n2)c1 [Example 5a, (E)-N-(3-((5-chloro-4-((2-(dimethylphosphoryl)phenyl)amino)pyrimidin-2-yl)amino)-4-methoxyphenyl)but-2-enamide]	≥ 250
< 51	< 51	≥ 250	< 51		C#CC(=O)Nc1ccc(OC)c(Nc2ncc(Cl)c(Nc3ccccc3P(C)(C)=O)n2)c1 [Example 6a, N-(3-((5-chloro-4-((2-(dimethylphosphoryl)phenyl)amino)pyrimidin-2-yl)amino)-4-methoxyphenyl)propiolamide]	≥ 250
< 51	< 51		< 51		C=CS(=O)(=O)Nc1ccc(OC)c(Nc2ncc(Cl)c(Nc3ccccc3P(C)(C)=O)n2)c1 [Example 7, N-(3-((5-chloro-4-((2-(dimethylphosphoryl)phenyl)amino)pyrimidin-2-yl)amino)-4-methoxyphenyl)ethenesulfonamide]	≥ 250
< 51	≥ 250		101 to 250		C=C(CNc1ccc(OC)c(Nc2ncc(Cl)c(Nc3ccccc3P(C)(C)=O)n2)c1)C(=O)OC [Example 16, methyl 2-(((3-((5-chloro-4-((2-(dimethylphosphoryl)phenyl)amino)pyrimidin-2-yl)amino)-4-methoxyphenyl)amino)methyl)acrylate]	≥ 250
≥ 250	≥ 250	≥ 250	101 to 250		C=CC(=O)Nc1ccc(OC)c(Nc2nc(Nc3ccccc3P(C)(C)=O)c3c(F)c[nH]c3n2)c1 [Example 23, N-(3-((4-((2-(dimethylphosphoryl)phenyl)amino)-5-fluoro-7H-pyrrolo[2,3-d]pyrimidin-2-yl)amino)-4-methoxyphenyl)acrylamide]	≥ 250
101 to 250	≥ 250	≥ 250	≥ 250		C=CC(=O)Nc1ccc(Nc2ncc(Cl)c(Nc3ccccc3P(C)(C)=O)n2)c(OC)c1 [Example 45, N-(4-((5-chloro-4-((2-(dimethylphosphoryl)phenyl)amino)pyrimidin-2-yl)amino)-3-methoxyphenyl)acrylamide]	≥ 250
